In US20230374071A1, “COMPOSITIONS FOR INDUCING URINARY VOIDING AND DEFECATION” (Dignify Therapeutics, LLC, priority 2020, published 2023):
Converted amounts (≈) assume the structure as drawn.

Tests used:
[1] = Aqueous solubility of lyophilized peptide analogs (observed dissolution in Dulbecco's phosphate buffered saline and water); type: physicochemical; conditions: observed dissolution in both Dulbecco's phosphate buffered saline and water; 5 mg/mL was the maximum tested
Experimental: Peptide analogs of NKA were purified to ≥95% purity. […] Compounds A, B, H, and J (SEQ ID NO: 1, 2, 8, and 10) were considered to be aqueous insoluble (<0.1 mg/mL). *Aqueous solubilities of the lyophilized peptide analogs were determined based on the observed dissolution in both Dulbecco's phosphate buffered saline and water. gc=Gly-(R-gamma-lactam)-Leu or (S)-2-((R)-3-amino)-2-oxopyrrolidin-1-yl)-4-methylpantanoyl.

[2] = molecular target: T1, human NK1 receptor (hNK1R) (Homo sapiens, UniProt P25103); assay: Intracellular calcium mobilization (Fluo-4 AM, FLIPR) in CHO cells expressing recombinant hNK1R; type: cell-based; conditions: for Emax: CHO, calcium response, CHO cells, full or partial agonists, read-out: maximal response at hNK1R compared to Substance P; for EC50: calcium mobilization, CHO-hNK1 cells, agonist potency, read-out: hNK1R pEC50 (converted)
T1 construct: expressed in transfected cells; host or cells: CHO (CHO-hNK1)
Experimental: (§1) Intracellular Calcium Mobilization: The agonist efficacy of compounds A-J at recombinant hNK2R or hNK1Rs expressed in CHO cells was assessed by measuring intracellular calcium mobilization using the calcium-sensitive dye Fluo-4 AM (MOLECULAR PROBES, EUGENE, OR, USA) and a Fluorometric Imaging Plate Reader (FLIPR, MOLECULAR DEVICES, CA, USA). CHO-hNK1 and CHO-hNK2 cells were seeded into black walled clear-bottom 384-well plates) at a density of 10,000 and 15,000 cells per well in 50 μL culture media, respectively, and grown overnight at 37° C. in a humidified CO2-incubator. Cells were washed in washing buffer using a Microplate Washer BIOTEK 384 instrument, leaving 20 μL of buffer per well after the final aspiration. Cells were then incubated at 37° C. with the cytoplasmic Ca^2+ indicator Fluo-4 AM at 2 μM in assay buffer containing 2.5 mM probenecid and 0.02% Pluronic F-127 for 45-60 min (cell loading). Cells were then washed 3 times in washing buffer using a Microplate Washer BIOTEK 384 instrument, leaving 30 μL of buffer in each well after the last wash. Loaded cell plates were transferred to the FLIPR Tetra instrument and calcium responses monitored as described below. A dual read-out FLIPR protocol was used, allowing for characterization of both agonist and antagonist profiles. For quality control, in each compound plate the signal was monitored by evaluating the responses to the reference standards (NKA and Substance P).
(§2) Twelve concentrations of each of the compounds A-J were evaluated for their ability to increase intracellular calcium levels with respect to the agonist reference standard (NKA or Substance P), and the pEC50 value was calculated. […] Concentration response curves of compounds were run in duplicate on two different occasions from the same stock solutions. Test solutions were prepared from 10 mM stock solutions in DMSO and 1 μL of each solution was stamped into V-bottom assay plates containing 49 μL assay buffer. The final concentration of DMSO was 0.5% in each well.
(§3) The results of the intracellular calcium mobilization by in vitro activation of recombinant hNK2Rs or hNK1Rs expressed in CHO cells as described above for the 10 peptide analogs A-J, is shown in Table 3 below. In addition, FIGS. 3A-3C are exemplary graphs showing stimulation of [Ca^2+] response in CHO cells expressing human NK2 or NK1 receptors by Compound A, Compound B, and Compound G, respectively. In FIGS. 3A-3C, data are expressed as % of the maximal response to substance P for NK1 receptors, or NKA for NK2 receptors. Each data point is the mean±SD from duplicate determinations.

[3] = molecular target: T2, human NK2 receptor (hNK2R) (Homo sapiens, UniProt P21452); assay: Intracellular calcium mobilization (Fluo-4 AM, FLIPR) in CHO cells expressing recombinant hNK2R; type: cell-based; conditions: for EC50: calcium mobilization, CHO-hNK2 cells, agonist potency, read-out: hNK2R pEC50 (converted)
T2 construct: expressed in transfected cells; host or cells: CHO (CHO-hNK2)
T2 sequence (P21452 1-398): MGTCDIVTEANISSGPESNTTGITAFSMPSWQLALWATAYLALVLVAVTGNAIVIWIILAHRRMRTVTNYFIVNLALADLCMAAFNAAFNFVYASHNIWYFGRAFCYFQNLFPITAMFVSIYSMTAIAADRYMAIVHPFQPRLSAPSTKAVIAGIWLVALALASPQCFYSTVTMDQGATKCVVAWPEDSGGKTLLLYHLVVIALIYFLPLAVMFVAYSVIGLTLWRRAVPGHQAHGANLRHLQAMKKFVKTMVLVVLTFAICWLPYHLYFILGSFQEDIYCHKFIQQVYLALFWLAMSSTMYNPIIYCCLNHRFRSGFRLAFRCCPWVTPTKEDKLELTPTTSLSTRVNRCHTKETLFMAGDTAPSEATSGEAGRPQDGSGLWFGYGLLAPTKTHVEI
Experimental: as §1, §2, §3

T1 sequence (P25103 whole entry): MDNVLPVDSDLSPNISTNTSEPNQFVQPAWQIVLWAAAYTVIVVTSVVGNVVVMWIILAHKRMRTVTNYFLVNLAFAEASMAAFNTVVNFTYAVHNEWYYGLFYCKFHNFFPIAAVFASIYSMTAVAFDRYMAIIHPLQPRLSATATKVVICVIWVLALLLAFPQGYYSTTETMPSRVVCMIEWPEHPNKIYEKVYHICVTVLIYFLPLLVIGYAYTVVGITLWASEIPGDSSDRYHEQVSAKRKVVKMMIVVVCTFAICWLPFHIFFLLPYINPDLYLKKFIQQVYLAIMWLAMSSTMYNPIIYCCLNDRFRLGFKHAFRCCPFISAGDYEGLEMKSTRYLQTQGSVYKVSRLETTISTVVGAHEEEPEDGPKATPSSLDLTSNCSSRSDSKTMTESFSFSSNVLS

Row | Aqueous solubility [1] [µg/mL] | solubility [1] [µg/mL] | Emax [2] [%] | EC50 [2] [nM] | EC50 [3] [nM] | selectivity for activation of hNK2Rs vs hNK1Rs ([3]; from ratios of EC50s) [fold] | Compound
1 | <100 | < 100 | ≥ 85 | 490 | 0.676 | > 700 | CSCC[C@H](NC(=O)[C@H](CC(C)C)N1CC[C@@H](NC(=O)[C@@H](NC(=O)[C@H](Cc2ccccc2)NC(=O)[C@H](CO)NC(=O)[C@@H](N)CC(=O)O)C(C)C)C1=O)C(N)=O [Compound A, Asp-Ser-Phe-Val-gc-Met-NH2]
2 | <100 | < 100 | ≥ 73 | 1780 | 8.51 |  | CCCC[C@H](NC(=O)[C@H](CC(C)C)N1CC[C@@H](NC(=O)[C@@H](NC(=O)[C@H](Cc2ccccc2)NC(=O)[C@H](CO)NC(=O)[C@@H](N)CC(=O)O)C(C)C)C1=O)C(N)=O [Compound B, Asp-Ser-Phe-Val-gc-Nle-NH2]
3 |  | 5000 (≈ 5.99 mM) |  | 53.7 | 0.427 |  | CSCC[C@H](NC(=O)[C@H](CC(C)C)N1CC[C@@H](NC(=O)[C@@H](NC(=O)[C@H](Cc2ccccc2)NC(=O)[C@H](CCCCN)NC(=O)[C@@H](N)CC(=O)O)C(C)C)C1=O)C(N)=O [Compound C, Asp-Lys-Phe-Val-gc-Met-NH2]
4 |  | 5000 (≈ 6.13 mM) |  | 479 | 3.63 |  | CCCC[C@H](NC(=O)[C@H](CC(C)C)N1CC[C@@H](NC(=O)[C@@H](NC(=O)[C@H](Cc2ccccc2)NC(=O)[C@H](CCCCN)NC(=O)[C@@H](N)CC(=O)O)C(C)C)C1=O)C(N)=O [Compound D, Asp-Lys-Phe-Val-gc-Nle-NH2]
5 |  | 5000 (≈ 5.8 mM) |  | 17.4 | 0.195 |  | CSCC[C@H](NC(=O)[C@H](CC(C)C)N1CC[C@@H](NC(=O)[C@@H](NC(=O)[C@H](Cc2ccccc2)NC(=O)[C@H](CCCNC(=N)N)NC(=O)[C@@H](N)CC(=O)O)C(C)C)C1=O)C(N)=O [Compound E, Asp-Arg-Phe-Val-gc-Met-NH2]
6 |  | 5000 (≈ 5.92 mM) |  | 234 | 2.51 |  | CCCC[C@H](NC(=O)[C@H](CC(C)C)N1CC[C@@H](NC(=O)[C@@H](NC(=O)[C@H](Cc2ccccc2)NC(=O)[C@H](CCCNC(=N)N)NC(=O)[C@@H](N)CC(=O)O)C(C)C)C1=O)C(N)=O [Compound F, Asp-Arg-Phe-Val-gc-Nle-NH2]
7 |  | 5000 (≈ 5.54 mM) | ≥ 73 | 1620 | 7.76 |  | CCCC[C@H](NC(=O)[C@H](CC(C)C)N1CC[C@@H](NC(=O)[C@@H](NC(=O)[C@H](Cc2ccccc2)NC(=O)[C@H](CO)NC(=O)[C@H](CC(=O)O)NC(=O)[C@@H](N)CCCCN)C(C)C)C1=O)C(N)=O [Compound G, Lys-Asp-Ser-Phe-Val-gc-Nle-NH2]
